Reference: article PMC8162438, “Cancer cell-selective modulation of mitochondrial respiration and metabolism by potent organogold(III) dithiocarbamates” (Chemical Science, 2020)

Columns and labels:
MDA-MB-231 = assay: Whole-cell uptake after pre-treatment with uptake inhibitors (GF-AAS); assay type: cell-based; details: MDA-MB-231, 5 μM, 24 h; NaN3, chlorpromazine, Me-β-CD, genistein, wortmannin
Description: To understand cell uptake mechanisms, detailed uptake studies using GF-AAS were conducted whereby MDA-MB-231 cells were incubated with gold compound, 2a after cellular pretreatment with one of a number of known inhibitors of cellular uptake. Sodium azide (NaN3), which is known to inhibit mitochondrial oxidative phosphorylation, was used as a general inhibitor of energy (ATP)-dependent (active) uptake; chlorpromazine (CL) was utilized as an inhibitor of clathrin-dependent endocytosis (CDE); β-cyclodextrin (Me-β-CD) and genestein (Gen) were used as inhibitors of clathrin-independent endocytosis (CIE); and, wortmannin (Wort) was employed as a known inhibitor of micropinocytosis. […] Being an […] pathway illustrates that these compounds are not dependent on oxidative phosphorylation for uptake, despite; their ability to modulate OXPHOS. […]
and treated at a final concentration of 5 µ M and treated for 24 hours as well. The cells were then collected by trypsinization and centrifuged at 2000 rpm for 5 minutes to form a pellet. […]
text (Figure 5C). Samples 37 °C, NaN 3, methyl-β-cyclodextrin, and chlorpromazine hydrochloride were calculated using calibration curve Fig. S134 and samples wortmannin, genistein, and +4 °C were calculated using calibration curve Fig. S135. […]

MRC5 = assay: Seahorse XF96 mitochondria stress test (OCR), MRC5; assay type: cell-based, human; details: MRC5, 0.1–3 μM

C[N+](C)=C1[S][Au-2]2([S]1)[c]1ccccc1Cc1cccc[n+]12.F[P-](F)(F)(F)(F)F (centres unmarked) [2a]
Uptake after pre-treatment with uptake inhibitors (MDA-MB-231): significantly decreased with all inhibitors with the exception of NaN3 | Effect on OCR of MRC5 (MRC5): did not impact the OCR
